According to ChEMBL document CHEMBL4229357, “1-Aroylindoline-hydroxamic acids as anticancer agents, inhibitors of HSP90 and HDAC” (Eur J Med Chem, 2018):
Calls of active or inactive are those of the source. The calls are words filed in the database; no cut-off is given here.

Experiments:
A549 = test: Antiproliferative activity against human A549 cells after 48 hrs by sulforhodamine B assay; type: functional
HCT-116 = test: Antiproliferative activity against human HCT116 cells after 48 hrs by sulforhodamine B assay; type: functional; details: HCT-116, 48 h
HL-60 = test: Antiproliferative activity against human HL60 cells after 48 hrs by sulforhodamine B assay; type: functional
NCI-H1975 = test: Antiproliferative activity against human NCI-H1975 cells after 48 hrs by sulforhodamine B assay; type: functional; details: NCI-H1975, 48 h
Histone deacetylase = type: protein assay, Homo sapiens
[1] = molecular target: T1, Histone deacetylase (Homo sapiens) (UniProt Q13547+O15379+Q9UBN7+Q92769+Q9UQL6+Q8WUI4+Q9BY41+Q96DB2+P56524+Q9UKV0+Q969S8); test: Inhibition of HDAC in human HL60 cells assessed as upregulation of acetyl-alpha-tubulin levels at 1 uM after 24 hrs by Western blot analysis; type: cell-based
[2] = molecular target: T1, Histone deacetylase (Homo sapiens); test: Inhibition of HDAC in human HL60 cells assessed as upregulation of acetylated histone H3 levels at 1 uM after 24 hrs by Western blot analysis; type: cell-based
[3] = molecular target: Heat shock protein HSP 90-alpha (Homo sapiens, UniProt P07900); test: Inhibition of FITC-geldanamycin binding to HSP90alpha (unknown origin) after 3 hrs by fluorescence polarization assay
[4] = molecular target: T2, Heat shock protein HSP90 (Homo sapiens) (UniProt P07900+P08238); test: Inhibition of HSP90 in human HL60 cells assessed as induction of HSP70 expression after 24 hrs by Western blot analysis; type: cell-based
[5] = molecular target: T2, Heat shock protein HSP90 (Homo sapiens); test: Inhibition of HSP90 in human HL60 cells assessed as downregulation of phosphorylated Akt expression after 24 hrs by Western blot analysis; type: cell-based
[6] = molecular target: T2, Heat shock protein HSP90 (Homo sapiens); test: Inhibition of HSP90 in human HL60 cells assessed as downregulation of phosphorylated STAT3 expression after 24 hrs by Western blot analysis; type: cell-based
[7] = molecular target: T2, Heat shock protein HSP90 (Homo sapiens); test: Inhibition of HSP90 in human HL60 cells assessed as induction of HSP70 expression at 1 uM by Western blot analysis; type: cell-based; details: TDE = time-dependent effect
[8] = molecular target: T2, Heat shock protein HSP90 (Homo sapiens); test: Inhibition of HSP90 in human HL60 cells assessed as downregulation of phosphorylated Akt expression at 1 uM by Western blot analysis; type: cell-based; details: TDE = time-dependent effect
[9] = molecular target: T2, Heat shock protein HSP90 (Homo sapiens); test: Inhibition of HSP90 in human HL60 cells assessed as downregulation of phosphorylated STAT3 expression at 1 uM by Western blot analysis; type: cell-based; details: TDE = time-dependent effect

Question: `COc1c(C)cnc(Cn2cnc3c(Cl)nc(N)nc32)c1C` [BIIB021] was tested. Which GI50 (A549; Homo sapiens, A549, 48 h) did it give?
Answer: Its GI50 is 0.33 µM.

Question: And the GI50 (HCT-116)?
Answer: Its GI50 is 0.15 µM.

Question: What about the GI50 (HL-60; Homo sapiens, HL-60, 48 h) of the same compound?
Answer: Its GI50 is 0.59 µM.

Question: What about the GI50 (NCI-H1975) of the same compound?
Answer: The GI50 was 0.38 µM.

Question: What about the IC50 (Histone deacetylase) of the same compound?
Answer: The IC50 was over 1 µM.

Question: What about the inhibition [1] of the same compound?
Answer: The inhibition was “Active”.

Question: What about the inhibition [2] of the same compound?
Answer: Its inhibition is “Active”.

Question: Which results are given for `O=C(CCCCCCC(=O)Nc1ccccc1)NO` [VORINOSTAT]?
Answer: GI50 (A549): 1.02 µM; GI50 (HCT-116): 0.15 µM; GI50 (HL-60): 1.74 µM; GI50 (NCI-H1975): 1.41 µM; IC50 [3]: > 1 µM

Question: What does the source list for `CC(C)c1cc(C(=O)N2CCc3cc(NC(=O)CCCCCCC(=O)NO)ccc32)c(O)cc1O`?
Answer: inhibition [4]: Dose-dependent effect; inhibition [5]: Dose-dependent effect; inhibition [6]: Dose-dependent effect; inhibition [7]: Tde; inhibition [8]: Tde; inhibition [9]: Tde
